These results are taken from patent US20260287592A1, “ANALYSIS METHOD AND ANALYSIS SYSTEM” (priority 2023, published 2026).

Structures are written as SMILES.

The subject of this test is HER3. The following applies: Type3: SN-38 0.01 μM, gefitinib 0.00 μM; SKBR-3 cells, 24 hours; anti-HER3 staining.

With `CCc1c2c(nc3ccc(O)cc13)-c1cc3c(c(=O)n1C2)COC(=O)[C@]3(O)CC` [SN-38, 7-ethyl-10-hydroxycamptothecin], the “AVERAGE VALUE OF 10 WELLS FOR NUMBER OF BRIGHT SPOTS PER CELL” value was 12.
